Measurements reported in ChEMBL document CHEMBL1126565, “Three-dimensional QSAR of human immunodeficiency virus (I) protease inhibitors. 1. A CoMFA study employing experimentally-determined alignment rules” (J Med Chem, 1993).
Starred links: 1 amine or outer side, 2 acyl side, 3 side chain; linkers in the order of their positions; H or OH if unused. Non-standard residues stand in square brackets, D forms with d. Residues, ends and D or L forms follow the SMILES beside them. ξ: configuration not given here. Phe(ψ(S)CH(OH)CH2N)Pro = O=C([C@@H]1CCCN1C[C@H](O)[C@H](Cc1ccccc1)N[*:1])[*:2]; Pheψ(R-CH(OH)CH2N)Pro = O=C([C@@H]1CCCN1C[C@@H](O)[C@H](Cc1ccccc1)N[*:1])[*:2]; Sta = CC(C)C[C@H](N)[C@@H](O)CC(=O)O; ξIva = CCC(C)(N)C(=O)O

The compounds below were run against Human immunodeficiency virus type 1 protease (Human immunodeficiency virus 1, UniProt Q72874) (assay: Inhibitory potency against HIV-1 protease).
`CC[C@H](C)[C@H](NC(=O)[C@@H](C(C)C)C(O)C(O)[C@H](CC1CCCCC1)NC(=O)[C@H](Cc1c[nH]cn1)NC(=O)CN)C(=O)NCc1ccccn1` (stereo partly specified) gave an IC50 of 0.0248 µM.
Compound `CC[C@H](C)[C@H](NC(=O)[C@@H](C(C)C)C(O)C(O)[C@H](CC1CCCCC1)NC(=O)[C@H](Cc1c[nH]cn1)NC(=O)COc1cccc2ccccc12)C(=O)NCc1ccccn1` (stereo partly specified) has an IC50 of 0.0018 µM.
`CC(C)(C)N(C[C@@H](O)[C@H](Cc1ccccc1)NC(=O)[C@H](CC(N)=O)NC(=O)c1ccc2ccccc2n1)C(=O)NCc1ccncc1` was tested, and the IC50 was 0.019 µM.
`COC(=O)[C@@H](NC(=O)[C@H](CC(C)C)NC(=O)[C@@H]1CCCN1C[C@H](O)[C@H](Cc1ccccc1)NC(=O)[C@H](CC(N)=O)NC(=O)[C@H](CC(C)C)NC(=O)[C@H](CO)NC(C)=O)C(C)C` (Ac-SLN[Phe(ψ(S)CH(OH)CH2N)Pro]LV-OMe) gave an IC50 of 0.065 µM.
`COC(=O)[C@@H](NC(=O)[C@H](CC(C)C)NC(=O)[C@@H]1CCCN1C[C@H](O)[C@H](Cc1ccccc1)NC(=O)[C@H](CC(N)=O)NC(=O)OC(C)(C)C)C(C)C` showed an IC50 of 0.849 µM.
With `C[C@H](NC(=O)N(C[C@@H](O)[C@H](Cc1ccccc1)NC(=O)[C@H](CC(N)=O)NC(=O)OCc1ccccc1)C(C)(C)C)c1ccccc1` the IC50 was 5.09 µM.
For `CC(C)(C)OC(=O)[C@@H]1CCCN1C[C@H](O)[C@H](Cc1ccccc1)NC(=O)[C@H](CC(N)=O)NC(=O)c1ccc2ccccc2n1`, the IC50 was 0.023 µM.
With `CCC(C)(NC(=O)[C@@H](NC(=O)[C@@H](NC(=O)C[C@H](O)[C@H](CC(C)C)NC(=O)[C@H](C)NC(=O)C[C@H](O)[C@@H](N)CC(C)C)C(C)C)C(C)C)C(=O)O` (stereo partly specified) (H-[Sta]A[Sta]VV[ξIva]-OH) the IC50 was 12 µM.
Compound `CC[C@H](C)[C@H](N)C(=O)N[C@@H](CCC(N)=O)C(=O)N[C@@H](CC(C)C)[C@@H](O)CC(=O)N[C@@H](CC(N)=O)C(=O)N[C@@H](Cc1ccccc1)C(=O)N[C@@H](CO)C(=O)O` (H-IQ[Sta]NFS-OH) has an IC50 of 12 µM.
For `CC(C)(C)N(C[C@@H](O)[C@H](Cc1ccccc1)NC(=O)[C@H](CC(N)=O)NC(=O)OCc1ccccc1)C(=O)NCC1CCCCC1`, the IC50 was 0.029 µM.
`CCN(C[C@@H](O)[C@H](Cc1ccccc1)NC(=O)[C@H](CC(N)=O)NC(=O)OCc1ccccc1)C(=O)NCC(C)C` gave an IC50 of 0.33 µM.
For `CC[C@@H](C)[C@H](NC(=O)[C@@H](CC(C)C)C(O)C(O)[C@H](CC(C)C)NC(=O)C(Cc1c[nH]cn1)NC(=O)COc1cccc2ccccc12)C(=O)NCc1ccccn1` (stereo partly specified), the IC50 was 0.495 µM.
Compound `CSCC(NC(=O)c1ccc2ccccc2n1)C(=O)N[C@@H](Cc1ccccc1)[C@@H](O)CN1CCCCC1C(=O)NC(C)(C)C` (stereo partly specified) has an IC50 of 0.012 µM.
With `CC[C@H](C)[C@H](NC(=O)[C@@H](C(C)C)C(O)C(O)[C@H](CC(C)C)NC(=O)[C@H](Cc1c[nH]cn1)NC(=O)[C@H](Cc1ccccc1)NC(=O)OC(C)(C)C)C(=O)NCc1ccccn1` (stereo partly specified) the IC50 was 0.063 µM.
Compound `CC[C@H](C)[C@H](NC(=O)[C@@H](C(C)C)C(O)C(O)[C@H](Cc1c[nH]cn1)NC(=O)COc1ccccc1)C(=O)NCc1ccccn1` (stereo partly specified) has an IC50 of 0.0112 µM.
`CC(C)CNC(=O)N(C)C[C@@H](O)[C@H](Cc1ccccc1)NC(=O)[C@H](CC(N)=O)NC(=O)OCc1ccccc1` gave an IC50 of 1.5 µM.
`CC[C@H](C)CNC(=O)[C@@H](C(C)C)C(O)C(O)[C@H](Cc1c[nH]cn1)NC(=O)COc1ccccc1` (stereo partly specified) showed an IC50 of 0.809 µM.
With `CCCCN(C[C@@H](O)[C@H](Cc1ccccc1)NC(=O)[C@H](CC(N)=O)NC(=O)OCc1ccccc1)C(=O)NCC(C)C` the IC50 was 0.942 µM.
Work on `CC[C@H](C)[C@H](NC(=O)[C@@H](CC1CCCCC1)C(O)C(O)[C@H](CC1CCCCC1)NC(=O)[C@H](Cc1c[nH]cn1)NC(=O)COc1cccc2ccccc12)C(=O)NCc1ccccn1` (stereo partly specified) yielded an IC50 of 0.0585 µM.
For `COC(=O)[C@@H](NC(=O)[C@H](CC(C)C)NC(=O)[C@@H]1CCCN1C[C@@H](O)[C@H](Cc1ccccc1)NC(=O)[C@H](CC(N)=O)NC(=O)[C@H](CC(C)C)NC(=O)[C@H](CO)NC(C)=O)C(C)C` (Ac-SLN[Pheψ(R-CH(OH)CH2N)Pro]LV-OMe), the IC50 was 0.0034 µM.
For `CC[C@H](C)[C@H](NC(=O)[C@@H](C(C)C)C(O)C(O)[C@H](CC1CCCCC1)NC(=O)[C@H](Cc1c[nH]cn1)NC(=O)CO)C(=O)NCc1ccccn1` (stereo partly specified), the IC50 was 0.00899 µM.
For `COC(=O)[C@@H](NC(=O)[C@H](CC(C)C)NC(=O)[C@@H]1CCCN1C[C@@H](O)[C@H](Cc1ccccc1)NC(=O)[C@H](CC(N)=O)NC(=O)OC(C)(C)C)C(C)C`, the IC50 was 0.016 µM.
`CC(C)(C)NC(=O)[C@@H]1C[C@@H]2CCCC[C@@H]2CN1C[C@H](O)[C@H](Cc1ccccc1)NC(=O)[C@H](CC(N)=O)NC(=O)OCc1ccccc1` gave an IC50 of 0.0027 µM.
`CC(C)(C)NC(=O)[C@@H]1CCCN1C[C@H](O)[C@H](Cc1ccccc1)NC(=O)[C@H](CC(N)=O)NC(=O)OCc1ccccc1` gave an IC50 of 0.21 µM.
`CC[C@H](C)[C@H](NC(=O)[C@@H](C(C)C)C(O)C(O)[C@H](CC1CCCCC1)NC(=O)CC1CCCCC1)C(=O)NCc1ccccn1` (stereo partly specified) gave an IC50 of 0.0495 µM.
`CCCCN(C[C@@H](O)[C@H](Cc1ccccc1)NC(=O)[C@H](CC(N)=O)NC(=O)c1ccc2ccccc2n1)C(=O)NCC(C)C` gave an IC50 of 0.126 µM.
`CC[C@H](C)[C@H](NC(=O)[C@@H]1CCCN1C[C@@H](O)[C@H](Cc1ccccc1)NC(=O)[C@H](CC(N)=O)NC(=O)OCc1ccccc1)C(=O)N[C@@H](Cc1ccccc1)C(=O)OC` showed an IC50 of 0.004 µM.
With `CC(C)(C)OC(=O)N[C@@H](CC(N)=O)C(=O)N[C@@H](Cc1ccccc1)C(O)C[C@@H](Cc1ccccc1)C(=O)N[C@H]1c2ccccc2C[C@H]1O` (stereo partly specified) the IC50 was 0.295 µM.
`CC(C)CCNC(=O)N(C[C@@H](O)[C@H](Cc1ccccc1)NC(=O)[C@H](CC(N)=O)NC(=O)OCc1ccccc1)C(C)(C)C` gave an IC50 of 0.013 µM.
In the case of `CC[C@H](C)[C@H](NC(=O)[C@@H]1C[C@@H]2CCCC[C@@H]2CN1C[C@@H](O)[C@H](Cc1ccccc1)NC(=O)[C@H](CC(N)=O)NC(=O)OCc1ccccc1)C(=O)N[C@H](C(=O)OC)C(C)C`, the IC50 is reported as 0.316 µM.
For `CC(C)(C)OC(=O)N[C@@H](Cc1ccccc1)C(O)C[C@@H](Cc1ccccc1)C(=O)N[C@H]1c2ccccc2C[C@H]1O` (stereo partly specified), the IC50 was 0.252 µM.
Work on `CC(C)CNC(=O)N(C[C@@H](O)[C@H](Cc1ccccc1)NC(=O)[C@H](CC(N)=O)NC(=O)c1ccc2ccccc2n1)C(C)(C)C` yielded an IC50 of 0.00601 µM.
With `CC(C)(C)OC(=O)[C@@H]1CCCN1CC(O)[C@H](Cc1ccccc1)NC(=O)[C@H](CC(N)=O)NC(=O)OCc1ccccc1` (stereo partly specified) the IC50 was 0.14 µM.
`CC(C)(C)N(C[C@@H](O)[C@H](Cc1ccccc1)NC(=O)[C@H](CC(N)=O)NC(=O)OCc1ccccc1)C(=O)NCc1ccccc1` was tested, and the IC50 was 0.019 µM.
`CC(C)(C)NC(=O)C1CCCCN1C[C@H](O)[C@H](Cc1ccccc1)NC(=O)C(CC(N)=O)NC(=O)c1ccc2ccccc2n1` (stereo partly specified) was tested, and the IC50 was 0.002 µM.
Compound `CC[C@H](C)[C@H](NC(=O)[C@@H](C(C)C)C(O)C(O)[C@H](CC(C)C)NC(=O)[C@H](Cc1c[nH]cn1)NC(=O)COc1cccc2ccccc12)C(=O)NCc1ccccn1` (stereo partly specified) has an IC50 of 0.0112 µM.
For `CC(C)(C)NC(=O)[C@@H]1C[C@@H]2CCCC[C@@H]2CN1C[C@@H](O)[C@H](Cc1ccccc1)NC(=O)[C@H](CC(N)=O)NC(=O)OCc1ccccc1`, the IC50 was 0.316 µM.
For `CC(C)(C)NC(=O)[C@@H]1CCCCN1C[C@@H](O)[C@H](Cc1ccccc1)NC(=O)[C@H](CC(N)=O)NC(=O)c1ccc2ccccc2n1`, the IC50 was 0.47 µM.
For `CC(C)(C)N(C[C@@H](O)[C@H](Cc1ccccc1)NC(=O)[C@H](CC(N)=O)NC(=O)c1ccc2ccccc2n1)C(=O)NCc1ccccc1`, the IC50 was 0.003 µM.
In the case of `CC(C)(C)N(C[C@@H](O)[C@H](Cc1ccccc1)NC(=O)[C@H](CC(N)=O)NC(=O)OCc1ccccc1)C(=O)NCc1ccncc1`, the IC50 is reported as 0.105 µM.
In the case of `CC(C)(C)NC(=O)C1CCCCN1C[C@H](O)[C@H](Cc1ccccc1)NC(=O)C(CC#N)NC(=O)OCc1ccccc1` (stereo partly specified), the IC50 is reported as 0.023 µM.
`CC[C@H](C)[C@H](NC(=O)[C@@H](CC(C)C)C(O)C(O)[C@H](CC1CCCCC1)NC(=O)[C@H](Cc1c[nH]cn1)NC(=O)COc1cccc2ccccc12)C(=O)NCc1ccccn1` (stereo partly specified) showed an IC50 of 0.0112 µM.
Work on `CC(C)CNC(=O)N(C[C@@H](O)[C@H](Cc1ccccc1)NC(=O)[C@H](CC(N)=O)NC(=O)OCc1ccccc1)C(C)C` yielded an IC50 of 0.26 µM.
In the case of `CC[C@H](C)CNC(=O)[C@@H](C(C)C)C(O)C(O)[C@H](CC(C)C)NC(=O)[C@H](Cc1c[nH]cn1)NC(=O)[C@H](Cc1ccccc1)NC(=O)OC(C)(C)C` (stereo partly specified), the IC50 is reported as 0.809 µM.
Compound `CCCN(C[C@@H](O)[C@H](Cc1ccccc1)NC(=O)[C@H](CC(N)=O)NC(=O)OCc1ccccc1)C(=O)NCC(C)C` has an IC50 of 0.519 µM.
`CC(C)CNC(=O)N(C[C@@H](O)[C@H](Cc1ccccc1)NC(=O)[C@H](CC(N)=O)NC(=O)OCc1ccccc1)C(C)(C)C` showed an IC50 of 0.035 µM.
With `CC[C@H](C)[C@H](NC(=O)[C@@H]1CCCN1CC(O)[C@H](Cc1ccccc1)NC(=O)[C@H](CC(N)=O)NC(=O)c1ccc2ccccc2n1)C(=O)N[C@@H](Cc1ccccc1)C(=O)OC` (stereo partly specified) the IC50 was 0.0023 µM.
In the case of `CC[C@H](C)[C@H](NC(=O)[C@@H](Cc1ccccc1)[C@@H](O)[C@H](O)[C@H](Cc1ccccc1)NC(=O)[C@H](Cc1c[nH]cn1)NC(=O)COc1cccc2ccccc12)C(=O)NCc1ccccn1`, the IC50 is reported as 0.027 µM.
Work on `C[C@@H](NC(=O)N(C[C@@H](O)[C@H](Cc1ccccc1)NC(=O)[C@H](CC(N)=O)NC(=O)OCc1ccccc1)C(C)(C)C)c1ccccc1` yielded an IC50 of 6.5 µM.
`CC[C@H](C)[C@H](NC(=O)[C@H](CC(C)C)C(O)C(O)[C@H](CC(C)C)NC(=O)[C@H](Cc1c[nH]cn1)NC(=O)COc1cccc2ccccc12)C(=O)NCc1ccccn1` (stereo partly specified) showed an IC50 of 0.0157 µM.
Work on `CC(C)(C)N(C[C@@H](O)[C@H](Cc1ccccc1)NC(=O)[C@H](CC(N)=O)NC(=O)c1ccc2ccccc2n1)C(=O)NCC1CCCCC1` yielded an IC50 of 0.005 µM.
`CC(C)(C)OC(=O)[C@@H]1CCCN1C[C@H](O)[C@H](Cc1ccccc1)NC(=O)OCc1ccccc1` was tested, and the IC50 was 6.5 µM.
`CC[C@H](C)[C@H](NC(=O)[C@@H]1CCCN1CC(O)[C@H](Cc1ccccc1)NC(=O)[C@H](CC(N)=O)NC(=O)OCc1ccccc1)C(=O)N[C@H](C(=O)OC)C(C)C` (stereo partly specified) showed an IC50 of 0.316 µM.
`CC(C)CCNC(=O)N(C[C@@H](O)[C@H](Cc1ccccc1)NC(=O)[C@H](CC(N)=O)NC(=O)c1ccc2ccccc2n1)C(C)(C)C` gave an IC50 of 0.003 µM.
`CC[C@H](C)[C@H](NC(=O)[C@@H]1CCCN1C[C@@H](O)[C@H](Cc1ccccc1)NC(=O)[C@H](CC(N)=O)NC(=O)OCc1ccccc1)C(=O)N[C@H](C(=O)OC)C(C)C` gave an IC50 of 0.013 µM.
With `CC[C@H](C)[C@H](NC(=O)[C@@H](C(C)C)C(O)C(O)[C@H](CC1CCCCC1)NC(=O)[C@H](Cc1c[nH]cn1)NC(=O)COc1ccccc1)C(=O)NCc1ccccn1` (stereo partly specified) the IC50 was 0.0045 µM.
